A melting point compilation (Tetko et al.; mined from patent text by program, amines drawn as free bases though some values may be those of a salt)

`O=C(c1ccccc1)c1cncc(Br)c1` gave a melting point of 66 to 68 °C. Compound `CCC1(CCCCN2CCN(c3cccc(Cl)c3)CC2)C(=O)Nc2ccc(C)cc21` (centres undefined) has a melting point of 142 to 144 °C. Compound `CC(C)OC1(C(=O)O)C=C(Cl)C=C(Cl)C1` (centres undefined) has a melting point of 140 to 141 °C. With `Cc1c(NC(=O)c2ccc(OC[C@@H]3CCCO3)cc2)ccc2cc(CNCC(C)C)[nH]c12` the melting point was 159 °C. For `CCCC[C@H]1CC[C@H](c2ccc(CCc3ccc(OC(F)F)cc3)cc2)CC1`, the melting point was 32 °C. `CCCCCCCCCCCCCCCNC(=O)OCCOCCOC(=O)N(Cc1ccccn1)C(C)=O` gave a melting point of 53 to 55 °C. With `CCCN1C(=O)C(=O)c2cc(SCCCc3ccc(C(=O)O)cc3)ccc21` the melting point was 140 to 142 °C. For `COc1cc(C)nc(-n2nc(C)n(NS(=O)(=O)c3ccccc3OC(F)(F)F)c2=O)n1`, the melting point was 248 °C. For `N#CN=C(Nc1cccc(F)c1)NC(NC(=O)c1ccc(Cl)cc1)c1ccsc1` (centres undefined), the melting point was 166 to 168 °C. In the case of `CC1=CC(COC(c2ccccc2)(c2ccccc2)c2ccccc2)OC1O` (centres undefined), the melting point is reported as 100 to 102 °C. `Nc1c([N+](=O)[O-])ccc(Sc2ccccc2)c1Cl` showed a melting point of 144 to 146 °C. `CCCCCCCc1cnc([C@H]2CC[C@H](CCCCC)CC2)nc1` showed a melting point of 22 °C. `S=C(Nc1ccc(Sc2ccc3ccccc3n2)cc1)Nc1ccc(Cl)c(Cl)c1` gave a melting point of 125 to 126 °C. With `CCc1noc(CC(=O)c2ccccc2)c1C(=O)NC` the melting point was 134 to 136 °C. Compound `CC(C)(C)n1ncc(OCc2ccc(OCc3ccc(F)cc3)nc2)c(Cl)c1=O` has a melting point of 121 to 124 °C. Compound `CCNc1cccnc1N1CCN(C(=O)c2ccc(C(=O)N3CCN(CCO)CC3)cc2)CC1` has a melting point of 152 to 153 °C. Compound `CC(=O)Nc1c(CC(=O)O)c2ccccc2n1C` has a melting point of 200 to 206 °C. In the case of `Cc1nc(CCOc2ccc([N+](=O)[O-])cc2)c(C)o1`, the melting point is reported as 97 to 98 °C. With `OCc1ccccc1-c1cc(-c2ccccc2)on1` the melting point was 68 to 70 °C. For `C(=C\c1nc(COc2ccc(CCCCCCn3ccnc3)cc2)co1)/c1ccccc1`, the melting point was 108 to 109 °C. For `COc1cc(N)c(C(=O)CS(C)=O)cc1OC` (centres undefined), the melting point was 162 to 164 °C. With `Nc1csc(-c2ccccc2)c1` the melting point was 76 to 78 °C. Work on `CN(C)Cc1ccc(CSCCNC(=O)C=CC(=O)NCCCOc2cccc(CN3CCCC3)c2)o1` yielded a melting point of 126 to 128 °C. For `Cc1ccc(NC(=O)c2ccc(C(=O)Nc3ccccc3N)s2)cc1Nc1nc(-c2cccnc2)cs1`, the melting point was 242 °C. Compound `Sc1nccc(-c2ccccc2)n1` has a melting point of 203 to 205 °C. With `O=C(O)C=Cc1ccc(C=CC(=O)O)c2ccccc12` the melting point was 350 to 355 °C. Work on `CCc1nc(-c2ccc(Cl)cc2)c(CCC(=O)O)o1` yielded a melting point of 160 to 161 °C. In the case of `CC12CCC3c4ccc(OC(=O)c5cccnc5)cc4CCC3C1CCC2OC(=O)c1cccnc1` (centres undefined), the melting point is reported as 148 to 150 °C. In the case of `CC(C)C1CCC(C(=O)N[C@H](Cc2ccccc2)C(=O)O)CC1` (some centres undefined), the melting point is reported as 129 to 130 °C. Compound `O=C(NC(Cc1ccccc1)P(O)O)OCc1ccccc1` (centres undefined) has a melting point of 137 °C. For `NC(=O)C(Cc1ccccc1)=NNc1ccc(C(O)(C(F)(F)F)C(F)(F)F)cc1`, the melting point was 211 to 213 °C. Work on `N#Cc1cc(-c2nc3cncnc3s2)ccc1Oc1ccccc1Cl` yielded a melting point of 209 to 211 °C. `COC(=O)CCCc1c(-c2ccc(F)cc2)[nH]c2ccc(-c3ccc(O)cc3)cc12` gave a melting point of 141 to 143 °C. Work on `O=C(Nc1cccc(S(=O)(=O)N2CCOCC2)c1)c1cnn2c(C(F)F)cc(-c3ccc(Cl)cc3)nc12` yielded a melting point of 253 °C. For `CNC(=O)c1cnc(-c2ccccc2)c(-c2ccc(=O)n(C(C)C)n2)c1`, the melting point was 212 to 213 °C. `CC(C)(CO)NS(=O)(=O)c1cc(NC(=O)c2cnn3c(C(F)(F)F)cc(-c4ccc(C(F)(F)F)c(Cl)c4)nc23)c(Cl)s1` gave a melting point of 254 °C. For `CCOC(=O)c1cn(C)nc1OCc1ccc(OCc2nc(-c3ccccc3)oc2C)c(OC)c1`, the melting point was 134 to 135 °C. `CCOC(=O)c1coc(-c2ccc(Cn3cnc4ccccc43)cc2)n1` gave a melting point of 150 to 152 °C. `O=C(OCC1OC(n2cc(F)c(=O)[nH]c2=O)CC1OCc1ccccc1)c1cccnc1` (centres undefined) showed a melting point of 130 to 132 °C.
